Measurements from PMC6277555, “Short Symmetric-End Antimicrobial Peptides Centered on β-Turn Amino Acids Unit Improve Selectivity and Stability” (Frontiers in Microbiology, 2018).
Values after ≈ are worked out from the molar mass of the structure shown. Residues, ends and D or L forms follow the SMILES beside them.

How the values were obtained:
[1] = test system: Gram-negative and Gram-positive bacterial strains; assay: Geometric mean of MICs and therapeutic index; assay type: cell-based
Protocol: The hemolytic activity of the peptides was detected using a previously described modified method ([Wang et al., 2015]). One milliliter of fresh hRBCs was obtained from a healthy donor (Zhihua Wang, Harbin, China) in a polycarbonate tube containing heparin. The collected hRBCs were centrifuged at 1000 × g for 5 min at 4°C and resuspended in PBS buffer (pH 7.2). The hRBCs were washed three times and then incubated with an equal volume of the respective peptide dissolved in PBS for 1 h at 37°C. Then, the hRBC suspension was placed into a 96-well microtiter plater with 50 μL of tested peptide solution at different concentrations and the mixture was incubated for 1 h at 37°C. […] The minimum hemolytic concentrations (MHCs) were defined as the peptide concentrations resulting in 5% hemolysis.
(§1) The minimal inhibitory concentration (MIC) was determined according to a previously described method ([Chou et al., 2016]). Bacteria were cultured overnight to mid-log phase in MHB at 37°C and then diluted to give final concentrations ranging from 2 × 10^5 to 7 × 10^5 CFU/mL. Then, 50 μL of serial twofold dilutions of the peptides were added to each well in 96-well microtiter plates with a mixed solution containing 0.01% acetic acid and 0.2% bovine serum albumin (BSA, Sigma) was used to dissolve and dilute the peptides. Then, equal amounts of bacterial aliquots were incubated with the above peptide solution for 18–24 h at 37°C. The experiment was performed in triplicate using three replicates for each peptide and each bacterium. The broth was employed as a negative control and the broth with microbial cells was used as a positive control. The lowest concentration of peptide that prevented visible turbidity was defined as the MIC.

S. aureus = assay: Time killing assay; assay type: cell-based, Staphylococcus aureus; details: mean of three independent assays
Protocol: The ability of peptides to kill bacterial cells was further investigated by analyzing the fraction of cell survival upon peptide treatment at various exposure times according to a previously described method ([Wiradharma et al., 2012]). Briefly, E. coli and S. aureus were treated at MIC and 2 × MIC concentrations with peptides. At various time periods (0, 5, 10, 30, 60, 90, 120, and 150 min), microbial suspensions were diluted at three different dilutions and plated on MHA plates. Microbial colonies were formed and counted after 24 h of incubation. The results were presented as the mean data from three independent assays.

S. faecalis ATCC 29212 = assay type: cell-based, Streptococcus faecalis
Protocol: as §1

[2] = test system: total genomic DNA from E. coli; assay: DNA binding assay (gel retardation); design: species or system Escherichia coli; details: 1 h
Protocol: Gel retardation experiments were performed as previously described ([Zhu et al., 2015]). The total genomic DNA from E. coli was extracted using the rapid bacterial genomic DNA isolation kit (Sangon Biotech, China). First, increasing concentrations of peptides were mixed with 400 ng of genomic DNA in 20 μL of binding buffer [5% glycerol, 10 mM Tris-HCl (pH 8.0), 1 mM EDTA, 1 mM dithiothreitol, 20 mM KCl, and 50 μg/mL bovine serum albumin] and incubated at 37°C for 1 h. Next, 4 μL of native loading buffer [10% Ficoll 400, 10 mM Tris-HCl (pH 7.5), 50 mM EDTA, 0.25% bromophenol blue, and 0.25% xylene cyanol] was mixed with the samples and a 12 μL aliquot was subjected to 1% agarose gel electrophoresis in 0.5× Tris borate-EDTA buffer (45 mM Tris-borate and 1 mM EDTA, pH 8.0). Finally, gel retardation was visualized using UVP bioimaging systems.

B. pyocyaneum ATCC 27853 = assay type: cell-based, Bacterium pyocyaneum
Protocol: as §1

With `CC[C@H](C)[C@H](N)C(=O)N[C@@H](Cc1c[nH]cn1)C(=O)N[C@@H](CCCCN)C(=O)N[C@@H](Cc1ccccc1)C(=O)N[C@@H](Cc1c[nH]c2ccccc12)C(=O)N[C@@H](CCCNC(=N)N)C(=O)N[C@@H](CS)C(=O)N[C@@H](CCCNC(=N)N)C(=O)N[C@@H](CCCNC(=N)N)C(=O)N[C@@H](CCCNC(=N)N)C(=O)N[C@@H](Cc1ccccc1)C(=O)N[C@@H](CS)C(=O)N[C@@H](CCCNC(=N)N)C(=O)N[C@@H](Cc1c[nH]c2ccccc12)C(=O)N[C@@H](Cc1ccccc1)C(=O)N[C@@H](CCCCN)C(=O)N[C@@H](Cc1c[nH]cn1)C(=O)N[C@H](C(N)=O)[C@@H](C)CC` [PQ] (H-IHKFWRCRRRFCRWFKHI-NH2; N-terminus assumed) the “GM (geometric mean of the MIC values)” value ([1]; all ten tested strains) was 9.8 µM, the Therapeutic index ([1]; from MHC and GM) was 26.1 and the “Time to kill S. aureus” value (S. aureus; peptide at 1 × MIC) was 30 min. For the same compound, the “Time to kill S. aureus” value (S. aureus; peptide at 2 × MIC) was 30 min, the MIC (S. faecalis ATCC 29212) was 16 µM (≈ 41.2 µg/mL) and the “Concentration showing DNA-binding ability” value [2] was > 128 µM. For the same compound, the MIC (B. pyocyaneum ATCC 27853) was 8 µM (≈ 20.6 µg/mL).
